Experimental data reported in patent publication US9388140B2, “Substituted benzimidazoles” (priority 2011, dated 2016).
Like-named read-outs stand apart in the source and are kept apart here.

Molecular target: human kinase Mps-1 (Homo sapiens (Human), UniProt P33981)
Assay: Mps-1 kinase assay (TR-FRET)
Format: biochemical
Procedure: The human kinase Mps-1 phosphorylates a biotinylated substrate peptide. Detection of the phosphorylated product is achieved by time-resolved fluorescence resonance energy transfer (TR-FRET) from Europium-labelled anti-phospho-Serine/Threonine antibody as donor to streptavidin labelled with cross-linked allophycocyanin (SA-XLent) as acceptor. Compounds are tested for their inhibition of the kinase activity.
N-terminally GST-tagged human full length recombinant Mps-1 kinase (purchased from Invitrogen, Karslruhe, Germany, cat. no PV4071) was used. As substrate for the kinase reaction a biotinylated peptide of the amino-acid sequence […] (C-terminus in amide form, purchased from Biosynthan GmbH, Berlin) was used.
The concentration of Mps-1 in the assay was adjusted to the activity of the enzyme lot and was chosen appropriate to have the assay in the linear range, typical enzyme concentrations were in the range of about 1 nM (final conc. in the 5 μl assay volume).
The resulting mixture was incubated 1 h at 22° C. to allow the binding of the phosphorylated peptide to the anti-phospho(Ser/Thr)-Europium-antibody. Subsequently the amount of phosphorylated substrate was evaluated by measurement of the resonance energy transfer from the Europium-labelled anti-phospho(Ser/Thr) antibody to the Streptavidin-XLent.

[1] = N-terminally GST-tagged human full length recombinant Mps-1, 10 μM ATP, 1 μM biotinylated peptide substrate, read-out: Mps1 IC50

Sequence of human kinase Mps-1 (P33981 whole entry): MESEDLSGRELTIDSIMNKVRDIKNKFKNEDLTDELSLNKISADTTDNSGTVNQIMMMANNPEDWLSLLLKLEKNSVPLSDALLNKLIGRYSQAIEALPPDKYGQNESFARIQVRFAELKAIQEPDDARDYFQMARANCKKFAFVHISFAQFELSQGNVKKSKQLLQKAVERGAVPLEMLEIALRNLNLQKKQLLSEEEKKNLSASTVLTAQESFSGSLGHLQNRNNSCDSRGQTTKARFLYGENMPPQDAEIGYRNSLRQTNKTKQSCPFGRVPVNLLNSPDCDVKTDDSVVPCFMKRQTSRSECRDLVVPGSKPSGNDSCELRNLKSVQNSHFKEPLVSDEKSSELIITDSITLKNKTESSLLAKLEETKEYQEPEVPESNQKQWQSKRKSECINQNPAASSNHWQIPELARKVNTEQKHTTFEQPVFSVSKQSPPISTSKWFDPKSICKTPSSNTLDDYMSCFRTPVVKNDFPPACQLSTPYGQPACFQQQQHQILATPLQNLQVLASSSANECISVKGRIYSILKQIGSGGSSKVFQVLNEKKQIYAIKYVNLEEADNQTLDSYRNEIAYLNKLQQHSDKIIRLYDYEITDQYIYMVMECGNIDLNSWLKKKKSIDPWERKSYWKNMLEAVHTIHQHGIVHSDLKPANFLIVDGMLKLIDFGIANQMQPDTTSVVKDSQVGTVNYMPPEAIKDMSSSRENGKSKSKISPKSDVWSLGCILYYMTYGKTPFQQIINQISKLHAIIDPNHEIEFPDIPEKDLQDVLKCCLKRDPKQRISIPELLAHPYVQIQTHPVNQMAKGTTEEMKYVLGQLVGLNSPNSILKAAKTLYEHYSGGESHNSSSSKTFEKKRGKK

Structure (SMILES)	IC50 [1] [nM]	IC50 [nM]
CCNC(=O)c1ccc(-n2cnc3c(NCCC(F)(F)F)cc(-c4ccnn4C)cc32)cc1C [Example 31, N-ethyl-2-methyl-4-{6-(1-methyl-1H-pyrazol-5-yl)-4-[(3,3,3-trifluoropropyl)amino]-1H-benzimidazol-1-yl}benzamide]	33	
CNC(=O)c1ccc(-n2cnc3c(NCCC(F)(F)F)cc(-c4ccnn4C)cc32)cc1C [Example 32, N, 2-dimethyl-4-{6-(1-methyl-1H-pyrazol-5-yl)-4-[(3,3,3-trifluoropropyl)amino]-1H-benzimidazol-1-yl}benzamide]	20.2	
COc1ccc(Oc2cc(NCCC(F)(F)F)c3ncn(-c4ccc(C(=O)NC5CC5)c(C)c4)c3c2)cc1F [Example 33, N-cyclopropyl-4-{6-(3-fluoro-4-methoxyphenoxy)-4-[(3,3,3-trifluoropropyl)amino]-1H-benzimidazol-1-yl}-2-methylbenzamide]	0.7	
CCNC(=O)c1ccc(-n2cnc3c(NCCC(F)(F)F)cc(Oc4ccc(OC)c(F)c4)cc32)cc1C [Example 34, N-ethyl-4-{6-(3-fluoro-4-methoxyphenoxy)-4-[(3,3,3-trifluoropropyl)amino]-1H-benzimidazol-1-yl}-2-methylbenzamide]	5.8	
CNC(=O)c1ccc(-n2cnc3c(NCCC(F)(F)F)cc(Oc4ccc(OC)c(F)c4)cc32)cc1C [Example 35, 4-{6-(3-Fluoro-4-methoxyphenoxy)-4-[(3,3,3-trifluoropropyl)amino]-1H-benzimidazol-1-yl}-N,2-dimethylbenzamide]	3.9	
O=C(NC1CC1)c1ccc(-n2cnc3c(NCCC(F)(F)F)cc(Oc4cccc(F)c4F)cc32)cc1 [Example 36, N-cyclopropyl-4-{6-(2,3-difluorophenoxy)-4-[(3,3,3-trifluoropropyl)amino]-1H-benzimidazol-1-yl}benzamide]		0.4
O=C(NC1CC1)c1ccc(-n2cnc3c(NCCC(F)(F)F)cc(Oc4ccccc4)cc32)cc1 [Example 37, N-cyclopropyl-4-{6-phenoxy-4-[(3,3,3-trifluoropropyl)amino]-1H-benzimidazol-1-yl}benzamide]		0.5
COc1ccc(Oc2cc(NCCC(F)(F)F)c3ncn(-c4ccc(C(=O)NC5CC5)cc4)c3c2)cc1F [Example 38, N-cyclopropyl-4-{6-(3-fluoro-4-methoxyphenoxy)-4-[(3,3,3-trifluoropropyl)amino]-1H-benzimidazol-1-yl}benzamide]	0.4	
CNC(=O)c1ccc(-n2cnc3c(NCCC(F)(F)F)cc(Oc4ccccc4OC)cc32)cc1C [Example 39, 4-{6-(2-Methoxyphenoxy)-4-[(3,3,3-trifluoropropyl)amino]-1H-benzimidazol-1-yl}-N, 2-dimethylbenzamide]	43.3	
CCNC(=O)c1ccc(-n2cnc3c(NCCC(F)(F)F)cc(Oc4ccccc4OC)cc32)cc1C [Example 40, N-ethyl-4-{6-(2-methoxyphenoxy)-4-[(3,3,3-trifluoropropyl)amino]-1H-benzimidazol-1-yl}-2-methylbenzamide]	58.2	
COc1ccccc1Oc1cc(NCCC(F)(F)F)c2ncn(-c3ccc(C(=O)NC4CC4)c(C)c3)c2c1 [Example 41, N-cyclopropyl-4-{6-(2-methoxyphenoxy)-4-[(3,3,3-trifluoropropyl)amino]-1H-benzimidazol-1-yl}-2-methylbenzamide]	10.1	
CNC(=O)c1ccc(-n2cnc3c(NCC4CCOCC4)cc(Oc4ccc(OC)c(F)c4)cc32)cc1C [Example 42, 4-{6-(3-Fluoro-4-methoxyphenoxy)-4-[(tetrahydro-2H-pyran-4-ylmethyl)amino]-1H-benzimidazol-1-yl}-N,2-dimethylbenzamide]	4.9	
CCNC(=O)c1ccc(-n2cnc3c(NCC4CCOCC4)cc(Oc4ccc(OC)c(F)c4)cc32)cc1C [Example 43, N-ethyl-4-{6-(3-fluoro-4-methoxyphenoxy)-4-[(tetrahydro-2H-pyran-4-ylmethyl)amino]-1H-benzimidazol-1-yl}-2-methylbenzamide]	4	
COc1ccc(Oc2cc(NCC3CCOCC3)c3ncn(-c4ccc(C(=O)NC5CC5)c(C)c4)c3c2)cc1F [Example 44, N-cyclopropyl-4-{6-(3-fluoro-4-methoxyphenoxy)-4-[(tetrahydro-2H-pyran-4-ylmethyl)amino]-1H-benzimidazol-1-yl}-2-methylbenzamide]	0.7	
Cc1cc(-n2cnc3c(NCCC(F)(F)F)cc(Oc4ccc(OCc5ccccc5)cc4)cc32)ccc1C(=O)NC1CC1 [Example 45, 4-{6-[4-(Benzyloxy)phenoxy]-4-[(3,3,3-trifluoropropyl)amino]-1H-benzimidazol-1-yl}-N-cyclopropyl-2-methylbenzamide]	6.7	
CCNC(=O)c1ccc(-n2cnc3c(NCCC(F)(F)F)cc(Oc4ccc(OCc5ccccc5)cc4)cc32)cc1C [Example 46, 4-{6-[4-(Benzyloxy)phenoxy]-4-[(3,3,3-trifluoropropyl)amino]-1H-benzimidazol-1-yl}-N-ethyl-2-methylbenzamide]	100	
CNC(=O)c1ccc(-n2cnc3c(NCCC(F)(F)F)cc(Oc4ccc(OCc5ccccc5)cc4)cc32)cc1C [Example 47, 4-{6-[4-(Benzyloxy)phenoxy]-4-[(3,3,3-trifluoropropyl)amino]-1H-benzimidazol-1-yl}-N,2-dimethylbenzamide]	100	
CNC(=O)c1ccc(-n2cnc3c(NCCC(F)(F)F)cc(Oc4ccc(O)cc4)cc32)cc1C [Example 48, 4-{6-(4-Hydroxyphenoxy)-4-[(3,3,3-trifluoropropyl)amino]-1H-benzimidazol-1-yl}-N,2-dimethylbenzamide]	5.6	
CCNC(=O)c1ccc(-n2cnc3c(NCCC(F)(F)F)cc(Oc4ccc(O)cc4)cc32)cc1C [Example 49, N-ethyl-4-{6-(4-hydroxyphenoxy)-4-[(3,3,3-trifluoropropyl)amino]-1H-benzimidazol-1-yl}-2-methylbenzamide]	5.5	
Cc1cc(-n2cnc3c(NCCC(F)(F)F)cc(Oc4ccc(O)cc4)cc32)ccc1C(=O)NC1CC1 [Example 50, N-cyclopropyl-4-{6-(4-hydroxyphenoxy)-4-[(3,3,3-trifluoropropyl)amino]-1H-benzimidazol-1-yl}-2-methylbenzamide]	1.1	
Cc1cc(-c2cc(NCCC(F)(F)F)c3ncn(-c4ccc(C(=O)NC5CC5)c(C)c4)c3c2)ccc1C(=O)NC1CC1 [Example 51, 4,4′-{4-[(3,3,3-Trifluoropropyl)amino]-1H-benzimidazole-1,6-diyl}bis(N-cyclopropyl-2-methylbenzamide)]	0.9	
CNC(=O)c1ccc(-c2cc(NCCC(F)(F)F)c3ncn(-c4ccc(C(=O)NC5CC5)c(C)c4)c3c2)cc1C [Example 52, 4-{1-[4-(Cyclopropylcarbamoyl)-3-methylphenyl]-4-[(3,3,3-trifluoropropyl)amino]-1H-benzimidazol-6-yl}-N,2-dimethylbenzamide]	0.9	
CCNC(=O)c1ccc(-c2cc(NCCC(F)(F)F)c3ncn(-c4ccc(C(=O)NC5CC5)c(C)c4)c3c2)cc1C [Example 53, 4-{1-[4-(Cyclopropylcarbamoyl)-3-methylphenyl]-4-[(3,3,3-trifluoropropyl)amino]-1H-benzimidazol-6-yl}-N-ethyl-2-methylbenzamide]	1.9	
Cc1cc(-n2cnc3c(NCCC(F)(F)F)cc(Oc4ccccc4O)cc32)ccc1C(=O)NC1CC1 [Example 54, N-cyclopropyl-4-{6-(2-hydroxyphenoxy)-4-[(3,3,3-trifluoropropyl)amino]-1H-benzimidazol-1-yl}-2-methylbenzamide]	0.2	
